Results taken from ChEMBL document CHEMBL1909046, “DrugMatrix in vitro pharmacology data”.
*1 amine or outer side, *2 acyl side, *3 side chain or, on linkers, in order; H or OH if unused. Where a SMILES comes first, the peptide text is derived from it. Bridges are numbered along the chain shown (N, C = ends). Roman numbers before positions name the chains, in order. [ ]: non-standard residue; d: D form. Actinocin(1to9) = Cc1c2oc3c(C)ccc(C(=O)[*:2])c3nc-2c(C(=O)[*:1])c(N)c1=O; NMeV = CN[C@H](C(=O)O)C(C)C; Sar = CNCC(=O)O

Assays:
[1] = DRUGMATRIX: Calcium Channel Type L, Dihydropyridine radioligand binding (ligand: [3H] Nitrendipine); format: cell membranes, Rattus norvegicus, Wistar, Cerebral cortex, Membrane; settings: Not Active = under 50% inhibition at 10 µM
[2] = biological target: T1, Endothelin-1 receptor (Homo sapiens, UniProt P25101); format: cell membranes, CHO-K1, Membrane; settings: cho-k1; note: in other assays of this panel Not Active means under 50% inhibition at 10 µM
T1 sequence (P25101 whole entry): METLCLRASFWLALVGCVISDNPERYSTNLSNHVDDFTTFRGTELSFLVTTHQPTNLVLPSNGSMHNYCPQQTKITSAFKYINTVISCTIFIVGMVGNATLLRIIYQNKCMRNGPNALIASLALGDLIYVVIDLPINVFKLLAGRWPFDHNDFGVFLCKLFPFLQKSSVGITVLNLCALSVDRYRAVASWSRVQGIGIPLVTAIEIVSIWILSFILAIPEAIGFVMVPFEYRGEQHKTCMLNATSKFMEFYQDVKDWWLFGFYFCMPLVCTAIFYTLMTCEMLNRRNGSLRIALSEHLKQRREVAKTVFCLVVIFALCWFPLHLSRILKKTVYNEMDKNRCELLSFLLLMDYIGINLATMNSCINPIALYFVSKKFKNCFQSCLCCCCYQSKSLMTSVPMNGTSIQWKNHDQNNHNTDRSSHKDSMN

[3] = DRUGMATRIX: Imidazoline I2, Central radioligand binding (ligand: [3H] Idazoxan); format: cell membranes, Rattus norvegicus, Wistar, Cerebral cortex, Membrane; settings: Not Active = under 50% inhibition at 10 µM
[4] = biological target: Melanocortin receptor 3 (Homo sapiens, UniProt P41968); format: cell membranes, HEK293, Membrane; settings: hek293; note: in other assays of this panel Not Active means under 50% inhibition at 10 µM
Melanocortin receptor 3, sequence (P41968 whole entry): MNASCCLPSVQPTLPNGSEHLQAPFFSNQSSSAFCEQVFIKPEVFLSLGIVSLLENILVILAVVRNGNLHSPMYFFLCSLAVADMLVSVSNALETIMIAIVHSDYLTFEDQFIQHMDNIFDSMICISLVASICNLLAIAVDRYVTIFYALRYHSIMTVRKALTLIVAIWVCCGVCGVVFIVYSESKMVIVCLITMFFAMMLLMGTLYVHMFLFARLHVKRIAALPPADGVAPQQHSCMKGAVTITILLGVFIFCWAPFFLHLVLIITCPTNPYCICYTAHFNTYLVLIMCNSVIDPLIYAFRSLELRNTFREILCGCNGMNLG

[5] = biological target: Nitric oxide synthase 1 (Rattus norvegicus, UniProt P29476); format: tissue-based, Cerebellum; note: in other assays of this panel Not Active means under 50% inhibition at 10 µM
Nitric oxide synthase 1, sequence (P29476 whole entry): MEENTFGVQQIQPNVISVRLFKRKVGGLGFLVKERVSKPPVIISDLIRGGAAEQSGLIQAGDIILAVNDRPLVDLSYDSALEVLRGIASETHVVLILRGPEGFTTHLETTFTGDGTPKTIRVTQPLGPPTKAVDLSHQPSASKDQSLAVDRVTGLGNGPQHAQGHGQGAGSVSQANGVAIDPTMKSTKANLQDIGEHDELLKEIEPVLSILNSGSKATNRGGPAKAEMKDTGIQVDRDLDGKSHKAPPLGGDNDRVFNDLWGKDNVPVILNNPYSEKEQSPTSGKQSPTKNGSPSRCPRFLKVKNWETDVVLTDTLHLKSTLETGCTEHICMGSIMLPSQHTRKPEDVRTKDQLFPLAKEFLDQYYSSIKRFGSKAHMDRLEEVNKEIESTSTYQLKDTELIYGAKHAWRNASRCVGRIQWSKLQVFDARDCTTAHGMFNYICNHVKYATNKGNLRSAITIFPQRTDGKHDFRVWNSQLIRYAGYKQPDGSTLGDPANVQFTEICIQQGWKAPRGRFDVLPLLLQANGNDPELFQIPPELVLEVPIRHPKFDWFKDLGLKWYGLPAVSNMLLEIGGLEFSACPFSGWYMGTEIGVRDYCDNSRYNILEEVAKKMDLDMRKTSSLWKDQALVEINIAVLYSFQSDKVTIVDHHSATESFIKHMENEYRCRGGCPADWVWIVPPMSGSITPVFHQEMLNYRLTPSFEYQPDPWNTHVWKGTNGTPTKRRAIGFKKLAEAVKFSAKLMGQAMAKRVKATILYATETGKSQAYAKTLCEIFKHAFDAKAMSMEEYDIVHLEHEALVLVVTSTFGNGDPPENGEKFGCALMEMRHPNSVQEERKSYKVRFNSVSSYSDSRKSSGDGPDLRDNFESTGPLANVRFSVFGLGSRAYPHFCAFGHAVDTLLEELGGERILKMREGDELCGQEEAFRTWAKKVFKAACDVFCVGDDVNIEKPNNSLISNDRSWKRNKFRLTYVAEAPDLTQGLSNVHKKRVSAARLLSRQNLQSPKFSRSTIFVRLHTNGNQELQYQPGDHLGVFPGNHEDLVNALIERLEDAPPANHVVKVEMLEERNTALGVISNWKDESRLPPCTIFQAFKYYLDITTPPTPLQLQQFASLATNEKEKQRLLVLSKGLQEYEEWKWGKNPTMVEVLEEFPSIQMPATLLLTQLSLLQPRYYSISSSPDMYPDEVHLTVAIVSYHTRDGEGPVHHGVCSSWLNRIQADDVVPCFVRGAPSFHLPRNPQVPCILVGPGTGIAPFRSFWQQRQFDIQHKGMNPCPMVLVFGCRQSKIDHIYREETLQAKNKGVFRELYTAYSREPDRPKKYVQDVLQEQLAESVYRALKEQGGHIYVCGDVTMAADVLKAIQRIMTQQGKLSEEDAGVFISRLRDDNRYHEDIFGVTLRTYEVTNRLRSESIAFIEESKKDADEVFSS

[6] = biological target: T2, Progesterone receptor (Bos taurus, UniProt Q690N0); test: DRUGMATRIX: Progesterone radioligand binding (ligand: [3H] R-5020); format: tissue-based, Uterus; settings: Not Active = under 50% inhibition at 10 µM
T2 sequence (Q690N0 whole entry): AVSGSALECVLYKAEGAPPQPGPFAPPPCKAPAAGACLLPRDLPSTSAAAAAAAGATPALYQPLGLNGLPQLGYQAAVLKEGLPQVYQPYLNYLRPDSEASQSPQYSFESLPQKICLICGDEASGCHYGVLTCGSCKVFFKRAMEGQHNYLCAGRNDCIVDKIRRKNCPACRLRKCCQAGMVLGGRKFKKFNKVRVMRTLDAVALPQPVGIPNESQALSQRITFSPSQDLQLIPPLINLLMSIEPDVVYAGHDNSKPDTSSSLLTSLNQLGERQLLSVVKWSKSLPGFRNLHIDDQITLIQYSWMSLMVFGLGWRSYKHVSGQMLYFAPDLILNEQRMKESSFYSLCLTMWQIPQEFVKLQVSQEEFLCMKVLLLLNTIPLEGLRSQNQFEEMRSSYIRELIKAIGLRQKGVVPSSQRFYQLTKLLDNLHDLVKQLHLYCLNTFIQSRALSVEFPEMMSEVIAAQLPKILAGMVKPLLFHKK

| Structure (SMILES) | IC50 [1] | Ki [1] | IC50 [2] | IC50 [3] | Ki [3] | IC50 [4] | IC50 [5] | IC50 [6] | IC50 ([1]; read-out: IC50) [nM] | Ki ([1]; read-out: Ki) [nM] | IC50 ([6]; read-out: IC50) [nM] | Ki ([6]; read-out: Ki) [nM] | IC50 ([3]; read-out: IC50) [nM] | Ki ([3]; read-out: Ki) [nM] |
| --- | --- | --- | --- | --- | --- | --- | --- | --- | --- | --- | --- | --- | --- | --- |
| C[C@H](CS)C(=O)N1CCC[C@H]1C(=O)O [CAPTOPRIL] | Not Active | Not Active | Not Active | Not Active | Not Active | Not Active | Not Active | Not Active |  |  |  |  |  |  |
| Cc1ccc(-c2cc(C(F)(F)F)nn2-c2ccc(S(N)(=O)=O)cc2)cc1 [CELECOXIB] |  |  | Not Active | Not Active | Not Active | Not Active | Not Active |  | 24600 | 15800 | 18100 | 2360 |  |  |
| O=C(O)CCCc1ccc(N(CCCl)CCCl)cc1 [CHLORAMBUCIL] | Not Active | Not Active | Not Active | Not Active | Not Active | Not Active | Not Active | Not Active |  |  |  |  |  |  |
| C[C@H](CCC(=O)O)[C@H]1CC[C@H]2[C@@H]3[C@H](O)C[C@@H]4C[C@H](O)CC[C@]4(C)[C@H]3C[C@H](O)[C@]12C [CHOLIC ACID] | Not Active | Not Active | Not Active | Not Active | Not Active | Not Active | Not Active | Not Active |  |  |  |  |  |  |
| Cc1cc(C2CCCCC2)n(O)c(=O)c1 [CICLOPIROX] | Not Active | Not Active | Not Active | Not Active | Not Active | Not Active | Not Active | Not Active |  |  |  |  |  |  |
| CC1=C2C(=CO[C@H](C)[C@H]2C)C(O)=C(C(=O)O)C1=O [CITRININ] | Not Active | Not Active | Not Active | Not Active | Not Active | Not Active | Not Active | Not Active |  |  |  |  |  |  |
| CC(C)(C)NCC(O)c1cc(Cl)c(N)c(Cl)c1 (configuration not stated) [CLENBUTEROL] | Not Active | Not Active | Not Active | Not Active | Not Active | Not Active | Not Active | Not Active |  |  |  |  |  |  |
| CC(C)(Oc1ccc(Cl)cc1)C(=O)O [CLOFIBRIC ACID] | Not Active | Not Active | Not Active | Not Active | Not Active | Not Active | Not Active | Not Active |  |  |  |  |  |  |
| Clc1cccc(Cl)c1NC1=NCCN1 [CLONIDINE] | Not Active | Not Active | Not Active |  |  | Not Active | Not Active | Not Active |  |  |  |  | 64 | 43 |
| Cc1cc(C(C#N)c2ccc(Cl)cc2)c(Cl)cc1NC(=O)c1cc(I)cc(I)c1O (configuration not stated) [CLOSANTEL] | Not Active | Not Active | Not Active | Not Active | Not Active | Not Active | Not Active | Not Active |  |  |  |  |  |  |
| Cc1onc(-c2ccccc2Cl)c1C(=O)N[C@@H]1C(=O)N2[C@@H]1SC(C)(C)[C@@H]2C(=O)O [CLOXACILLIN] | Not Active | Not Active | Not Active | Not Active | Not Active | Not Active | Not Active | Not Active |  |  |  |  |  |  |
| CC1CC(OC(=O)C(O)c2ccccc2)CC(C)(C)C1 (configuration not stated) [CYCLANDELATE] | Not Active | Not Active | Not Active | Not Active | Not Active | Not Active | Not Active | Not Active |  |  |  |  |  |  |
| Cc1c2oc3c(C)ccc(C(=O)N[C@@H]4C(=O)N[C@H](C(C)C)C(=O)N5CCC[C@H]5C(=O)N(C)CC(=O)N(C)[C@@H](C(C)C)C(=O)O[C@@H]4C)c3nc-2c(C(=O)N[C@@H]2C(=O)N[C@H](C(C)C)C(=O)N3CCC[C@H]3C(=O)N(C)CC(=O)N(C)[C@@H](C(C)C)C(=O)O[C@@H]2C)c(N)c1=O [DACTINOMYCIN] (I: T[dV]P[Sar][NMeV] / II: T[dV]P[Sar][NMeV]; ester I:1-I:C, II:1-II:C; linker I:N-II:N via Actinocin(1to9)) | Not Active | Not Active | Not Active | Not Active | Not Active | Not Active | Not Active | Not Active |  |  |  |  |  |  |
| Cc1c(O)c(=O)ccn1C [DEFERIPRONE] | Not Active | Not Active | Not Active | Not Active | Not Active | Not Active | Not Active | Not Active |  |  |  |  |  |  |
| CNCCCN1c2ccccc2CCc2ccccc21 [DESIPRAMINE] | Not Active | Not Active | Not Active | Not Active | Not Active | Not Active | Not Active | Not Active |  |  |  |  |  |  |
| O=c1oc2ccccc2c(O)c1Cc1c(O)c2ccccc2oc1=O [DICUMAROL] | Not Active | Not Active | Not Active | Not Active | Not Active | Not Active | Not Active | Not Active |  |  |  |  |  |  |
| C[C@H]1O[C@@H](O[C@H]2[C@@H](O)C[C@H](O[C@H]3[C@@H](O)C[C@H](O[C@H]4CC[C@@]5(C)[C@H](CC[C@@H]6[C@@H]5C[C@@H](O)[C@]5(C)[C@@H](C7=CC(=O)OC7)CC[C@]65O)C4)O[C@@H]3C)O[C@@H]2C)C[C@H](O)[C@@H]1O [DIGOXIN] | Not Active | Not Active | Not Active | Not Active | Not Active | Not Active | Not Active | Not Active |  |  |  |  |  |  |
| CC(C)[C@@]1(NC(=O)[C@@H]2C[C@@H]3c4cccc5[nH]cc(c45)C[C@H]3N(C)C2)O[C@@]2(O)[C@@H]3CCCN3C(=O)[C@H](Cc3ccccc3)N2C1=O.CS(=O)(=O)O [DIHYDROERGOCRISTINE MESYLATE] | Not Active | Not Active | Not Active |  |  | Not Active | Not Active | Not Active |  |  |  |  | 5.43 | 3.62 |
| CC(=O)O[C@@]12CO[C@@H]1C[C@H](O)[C@@]1(C)C(=O)[C@H](O)C3=C(C)[C@@H](OC(=O)[C@H](O)[C@@H](NC(=O)OC(C)(C)C)c4ccccc4)C[C@@](O)([C@@H](OC(=O)c4ccccc4)[C@H]21)C3(C)C.O.O.O [DOCETAXEL] | Not Active | Not Active | Not Active | Not Active | Not Active | Not Active | Not Active | Not Active |  |  |  |  |  |  |
| COc1cc2nc(N3CCN(C(=O)C4COc5ccccc5O4)CC3)nc(N)c2cc1OC (configuration not stated) [DOXAZOSIN] | Not Active | Not Active | Not Active | Not Active | Not Active | Not Active | Not Active | Not Active |  |  |  |  |  |  |
| C[C@H]1c2cccc(O)c2C(=O)C2=C(O)[C@]3(O)C(=O)C(C(N)=O)=C(O)[C@@H](N(C)C)[C@@H]3[C@@H](O)[C@@H]21.O [DOXYCYCLINE] | Not Active | Not Active | Not Active | Not Active | Not Active | Not Active | Not Active | Not Active |  |  |  |  |  |  |
| O=C(CCCN1CC=C(n2c(=O)[nH]c3ccccc32)CC1)c1ccc(F)cc1 [DROPERIDOL] | Not Active | Not Active | Not Active |  |  | Not Active | Not Active | Not Active |  |  |  |  | 2850 | 1900 |
